In patent publication US20260217761A1, “ANTIMICROBIAL PEPTIDE RICH IN TRYPTOPHAN AND HAVING SELF-ASSEMBLY PROPERTIES, AND USE THEREOF” (NANOQURE BIOTECH (SHENZHEN) CO., LTD., priority 2022, published 2026) one finds MIC, broad-spectrum antimicrobial activity and MIC after proteinase K treatment data, which are given here for one molecule.

The test system of test [1] is P. aeruginosa SP1. The class given is cell-based, Pseudomonas aeruginosa. On the procedure: (§1) • A. The polypeptide Z4 composed entirely of dextrorotatory amino acids is called the dextrorotatory isomer of polypeptide Z4. The polypeptide Z4-D was prepared into a certain stock solution for use. 0.01% acetic acid (containing 0.2% BSA) was used as the diluent, and a series of gradient antimicrobial peptide solutions were prepared in sequence by a two-fold dilution method. • B. 100 μL of the above-mentioned antimicrobial peptide stock solution was taken and placed in a 96-well cell culture plate. Then, an equal volume of the test bacterial solution (approximately […]) was added to each well. A positive control (containing the bacterial solution but no antimicrobial peptide) and a negative control (containing neither the bacterial solution nor the peptide) were included, respectively. The test bacterial species include Pseudomonas aeruginosa (Pseudomonas aeruginosa PL1, Pseudomonas aeruginosa SP1), Staphylococcus aureus (Staphylococcus aureus 544, Staphylococcus aureus 103), Escherichia coli (Escherichia coli 729, Escherichia coli 112), Klebsiella Pneumoniae (Klebsiella Pneumoniae 106, Klebsiella Pneumoniae 727), Streptococcus pneumonia 383, and Acinetobacter baumannii (Acinetobacter baumannii 946, Acinetobacter baumannii 780). • C. […] The minimum inhibitory concentration is determined as the condition where no turbidity is observed at the bottom of the well with naked eyes.

Test [2] deals with P. aeruginosa PL1. Type of test: cell-based, Pseudomonas aeruginosa. As to the method: as §1
In test [3] the test system is S. pneumoniae 383. Type of test: cell-based, Streptococcus pneumonia. As to the method: as §1
Test [4] has as its system E. coli 729. The class given is cell-based, Escherichia coli. As to the method: as §1
The subject of test [5] is E. coli 112. The class given is cell-based, Escherichia coli. As to the method: as §1
Test [6] concerns various bacteria. The test can be described thus: MIC against various bacteria (broad-spectrum antimicrobial activity). The class given is cell-based. As to the method: • A. The antimicrobial peptide was prepared into a certain stock solution for use. 0.01% acetic acid (containing 0.2% BSA) was used as the diluent, and a series of gradient antimicrobial peptide solutions were prepared sequentially by a two-fold dilution method. • B. 100 μL of the above-mentioned antimicrobial peptide stock solution was taken and placed in a 96-well cell culture plate. Then, an equal volume of the test bacterial solution (approximately 10^5 cells/mL) was added to each well. A positive control (containing the bacterial solution but no antimicrobial peptide) and a negative control (containing neither bacterial solution nor the peptide) were included, respectively. The test bacterial species include Pseudomonas aeruginosa (Pseudomonas aeruginosa PL1, Pseudomonas aeruginosa SP1), Staphylococcus aureus (Staphylococcus aureus 544, Staphylococcus aureus 103), Escherichia coli (Escherichia coli 729, Escherichia coli 112), Klebsiella Pneumoniae (Klebsiella Pneumoniae 106, Klebsiella Pneumoniae 727), Streptococcus pneumonia 383, Acinetobacter baumannii (Acinetobacter baumannii 946, Acinetobacter baumannii 780) (FIG. 1), or Pseudomonas aeruginosa (Pseudomonas aeruginosa PAO1), Staphylococcus aureus (Staphylococcus aureus SP1), and a mixed solution of the above two bacteria (FIG. 2). • C. The culture plate was placed in a constant temperature incubator at 37° C. for 20 h. The minimum inhibitory concentration is determined as the condition where no turbidity is observed at the bottom of the well with naked eyes.
• A. The polypeptide Z4 composed entirely of dextrorotatory amino acids is called the dextrorotatory isomer of polypeptide Z4. The polypeptide Z4-D was prepared into a certain stock solution for use. […] The minimum inhibitory concentration is determined as the condition where no turbidity is observed at the bottom of the well with naked eyes.

The test system of test [7] is A. baumannii 946. The class given is cell-based, Acinetobacter baumannii. On the procedure: as §1
The test system of test [8] is A. baumannii 780. The class given is cell-based, Acinetobacter baumannii. As to the method:
as §1

In test [9] the test system is S. aureus 103. The class given is cell-based, Staphylococcus aureus. As to the method:
as §1

The test system of test [10] is S. aureus 544. Type of test: cell-based, Staphylococcus aureus. On the procedure: as §1
Test [11] relates to mixed bacterial solution of P. aeruginosa PAO1 and S. aureus SP1. Type of test: cell-based. The note with it: within 0-120 minutes of proteinase K treatment, remained unchanged. As to the method: After ultrasonic treatment of polypeptide Z4 and polypeptide Z4-D for 30 min, they were placed at room temperature for 2 h to promote their self-assembly. Subsequently, proteinase K with a final concentration of 0.2 g/mL was mixed with the polypeptide solution (final concentration of 640 μM) and incubated at 37° C. for 0, 30, 60, 90 or 120 min respectively. Then, according to the scheme described in Example 2, the MICs of the polypeptides against the mixed bacterial solution of P. aeruginosa PAO1 and S. aureus SP1 under different treatment conditions were determined.

The subject of test [12] is K. pneumoniae 106. The class given is cell-based, Klebsiella Pneumoniae. As to the method:
as §1

For test [13], the system named is K. pneumoniae 727. Type of test: cell-based, Klebsiella Pneumoniae. As to the method: as §1

As a reminder, the MIC is the least concentration at which growth counts as inhibited. A higher MIC goes with a less susceptible organism.

≈ marks a conversion by molar mass, not a printed value. Non-standard residues stand in square brackets, D forms with d. Residues, ends and D or L forms follow the SMILES beside them.

As to `NCCCC[C@@H](NC(=O)[C@@H](Cc1c[nH]c2ccccc12)NC(=O)[C@H](N)Cc1c[nH]c2ccccc12)C(=O)N[C@H](CCCCN)C(=O)N[C@H](Cc1c[nH]c2ccccc12)C(=O)N[C@H](CCCCN)C(=O)N[C@H](CCCCN)C(=O)N[C@H](Cc1c[nH]c2ccccc12)C(=O)N[C@H](Cc1c[nH]c2ccccc12)C(N)=O` [Z4-D] (H-[dW][dW][dK][dK][dW][dK][dK][dW][dW]-NH2; N-terminus assumed), the MIC stood at 4 µM (≈ 5.84 µg/mL) in [1]; 16 µM (≈ 23.4 µg/mL) in test [2]; 4 µM (≈ 5.84 µg/mL) in [3]; 4 µM (≈ 5.84 µg/mL) in [4]; 4 µM (≈ 5.84 µg/mL) in test [5]; 4 µM (≈ 5.84 µg/mL) in test [7]. In addition, the MIC in test [8] is 16 µM (≈ 23.4 µg/mL); in test [9], 4 µM (≈ 5.84 µg/mL); in test [10], 4 µM (≈ 5.84 µg/mL); in [12], 128 µM (≈ 187 µg/mL); in test [13] it was 32 µM (≈ 46.7 µg/mL). Further, the broad-spectrum antimicrobial activity entry in test [6] is “good broad-spectrum antimicrobial activity”. The same molecule came in with an MIC after proteinase K treatment in test [11] of 4 µM (≈ 5.84 µg/mL).
